The values that follow come from PMC12920294, “Optimizing uPAR-targeting radiopeptides for improved tissue distribution: progress towards radionuclide therapy” (European Journal of Nuclear Medicine and Molecular Imaging, 2025).

Marks after values point to notes of the source that are not given here.

One series in a line: physchem. The series is classed as physicochemical. The following applies: pH 7.4. Here is the method:
The ^177Lu-labeled peptides (50 MBq/nmol) were incubated in mouse or human blood plasma (10 MBq/200 µL) over an incubation period of 24 h at 37 °C. Aliquots and control samples of the radiopeptides diluted in saline were analyzed after 1 h, 4 h and 24 h using thin layer chromatography (TLC) as previously reported (Supplementary Material). The distribution coefficients (logD values) of the ^177Lu-labeled peptides (50 MBq/nmol) were determined using a shake-flask method according to a previously published procedure (Supplementary Material). Methods: The radiopeptides (50 MBq/nmol) were diluted in phosphate buffered saline (PBS) pH 7.4 to obtain an activity concentration of 10 MBq/500 µL. A sample of this radiopeptide solution (~0.5 MBq, 25 µL, 0.01 nmol) was added to a mixture of PBS pH 7.4 (1475 µL) and n-octanol (1500 µL). The vials were vortexed vigorously for 1 min followed by centrifugation (560 rcf, 25°C, 6 min) for phase separation. Aliquots were taken from each phase and measured in a γ-counter (Wallac Wizard 1480, PerkinElmer). The distribution coefficients were calculated as the logarithmic value of the ratio of counts per minute (cpm) measured in the n-octanol phase relative to the cpm measured in the PBS phase. The results were listed as average ± SD of the data obtained from 3 independent experiments, each performed with five replicates.

A further series concerns the target T1, mouse serum albumin (Mus musculus, UniProt P07724).
T1 construct: tissue Rockland Immunochemicals Inc., USA Lot: 32321; host or cells: mouse blood plasma
The series is classed as in vitro ADME. Here is the method: (§1) The albumin-binding properties of the radiopeptides in mouse and human blood plasma were determined using an ultrafiltration assay with Amicon centrifugal filters (cut-off of 10 kDa; Merck Millipore) as previously reported (Supplementary Material). A fixed amount of the respective radiopeptide (~ 300 kBq, 15 µL, 6 pmol) was added to a defined volume (150 µL) of mouse and human blood plasma dilutions to obtain [mouse serum albumin]-to-[radiopeptide] molar concentration ratios of 0.01‒12,500 and [human serum albumin]-to-[radiopeptide] molar concentration ratios of 0.01‒20,000. The data were analyzed using a semi-logarithmic Hill plot with the maximum binding set as 100% using GraphPad Prism software (version 10.1.1). The half-maximum binding (B50 values) of each radiopeptide was expressed as relative values using the inverse ratios with the value of [^177Lu]Lu-uPAR-11 set as 1.0. […] The samples were incubated at 37 °C for 30 min. Ice-cold PBS (150 µL, pH 7.4) was added before loading the blood plasma samples on Amicon centrifugal filters (cut-off of 10 kDa; Merck Millipore) followed by centrifugation (14000 rcf, 4 °C, 30 min) to allow the separation of the plasma protein-bound from the unbound (free) fractions of each sample. The inserts of the filter devices were inverted and centrifuged at 200 rcf for 3 min to recover the protein-bound radiopeptide. The activity of the protein-bound fraction was measured using a γ-counter (Wallac Wizard 1480, PerkinElmer). The activity in the filtrate and filter unit was counted in the γ-counter and the counts were combined, assuming that the fraction retained in the filter membrane was not bound to proteins. The protein-bound fraction was expressed as percentage of the whole activity (i.e. plasma protein-bound activity, activity measured in the filtrate and activity measured in the filter (set as 100%)). The data were analyzed using a semi-logarithmic plot assuming a maximum binding of 100%. The Hill equation was fitted to the data points, and the half-maximum binding (B50) was determined based on the obtained binding curves using GraphPad Prism software (version 10.1.1). To quantitatively express and compare the albumin-binding properties of the radiopeptides, the relative albumin-binding affinity was expressed as the inverse half-maximal-binding (B50) of the respective radioligand to that of [^177Lu]Lu-uPAR-11, which was set as 1.0. The results were presented as the value obtained from the average curve from 3 independent experiments.

Series [1] deals with HEK-uPAR xenograft-bearing mice. The note with it: mouse, in vivo.
For a further series, the target named is human serum albumin (Homo sapiens, UniProt P02768). The series is classed as in vitro ADME. Also noted: tissue Stiftung Blutspende SRK Aargau-Solothurn, Switzerland; host or cells: human blood plasma. The method, then: as §1
Chain of human serum albumin (P02768 25-609): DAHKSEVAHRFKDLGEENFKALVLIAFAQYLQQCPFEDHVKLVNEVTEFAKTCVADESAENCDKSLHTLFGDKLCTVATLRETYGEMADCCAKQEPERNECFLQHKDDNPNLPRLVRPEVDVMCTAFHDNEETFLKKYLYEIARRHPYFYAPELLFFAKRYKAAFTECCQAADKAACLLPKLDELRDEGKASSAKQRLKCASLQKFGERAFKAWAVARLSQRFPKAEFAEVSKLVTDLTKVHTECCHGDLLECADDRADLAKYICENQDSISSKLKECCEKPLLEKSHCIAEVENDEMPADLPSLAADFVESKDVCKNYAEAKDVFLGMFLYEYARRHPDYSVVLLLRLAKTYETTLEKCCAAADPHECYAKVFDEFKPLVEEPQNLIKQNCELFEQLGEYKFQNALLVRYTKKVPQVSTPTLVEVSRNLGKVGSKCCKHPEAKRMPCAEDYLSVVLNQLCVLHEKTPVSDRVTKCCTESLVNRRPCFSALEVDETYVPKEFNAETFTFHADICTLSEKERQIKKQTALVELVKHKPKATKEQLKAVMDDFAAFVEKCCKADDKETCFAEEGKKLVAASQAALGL
For series [2], the system named is HEK-uPAR xenograft-bearing mice. The note with it: mouse, in vivo. Here is the method: Single-photon emission computed tomography/computed tomography (SPECT/CT) experiments were performed using a small-animal SPECT/CT camera (NanoSPECT/CTTM, Mediso Medical Imaging Systems, Budapest, Hungary) as described previously (Supplementary Material). HEK-uPAR xenografted nude mice were scanned at 1 h, 4 h, 24 h […] after injection of the respective radiopeptide (25 MBq, 0.5 nmol, in 100 μL 0.9% NaCl containing 0.05% bovine serum albumin (BSA)) The images were prepared using VivoQuant post-processing software (version 3.5, inviCRO Imaging Services and Software, Boston, USA). A Gauss post-reconstruction filter (full width at half maximum, 1.0 mm) was applied and the scale of activity was set as indicated on the images (minimum value = 0.2 Bq/voxel, maximum value = 20 Bq/voxel). Methods: SPECT/CT experiments were performed with CD1 nude mice (Crl:CD1-Foxn1^nu) approximately 3-9 weeks after HEK-uPAR cell inoculation. The mice were scanned 1 h, 4 h and 24 h post injection (p.i.) of the respective radiopeptide (25 MBq, 0.5 nmol, 100 μL, diluted in 0.9% NaCl containing 0.05% bovine serum albumin (BSA)). Imaging studies were performed using a four-head, multiplexing, multi-pinhole small-animal SPECT/CT camera (NanoSPECT/CT^TM, Mediso Medical Imaging Systems, Budapest, Hungary). Each head was outfitted with a tungsten-based aperture of nine 1.4 mm-diameter pinholes and a thickness of 10 mm. CT scans of 7-9 min duration were followed by SPECT scans of 45-50 min. The images were acquired using Nucline Software (version 10.2, Mediso Ltd., Budapest, Hungary). The real-time CT reconstruction used a cone-beam filtered backprojection. The reconstruction of SPECT data was performed with HiSPECT software (version 1.4.3049, […] GmbH, Göttingen, Germany) using γ-energies of 56.1 keV (± 10%), 112.9 keV (± 10%) and 208.4 keV (± 10%) for lutetium-177. The images were prepared using VivoQuant post-processing software (version 3.5, inviCRO Imaging Services and Software, Boston, USA). A Gauss post-reconstruction filter (full width at half maximum, 1.0 mm) was applied and the scale of activity was set as indicated on the images (minimum value = 0.2 Bq/voxel, maximum value = 20 Bq/voxel).
The source holds these as a separate data set.

T1 sequence (P07724 25-608): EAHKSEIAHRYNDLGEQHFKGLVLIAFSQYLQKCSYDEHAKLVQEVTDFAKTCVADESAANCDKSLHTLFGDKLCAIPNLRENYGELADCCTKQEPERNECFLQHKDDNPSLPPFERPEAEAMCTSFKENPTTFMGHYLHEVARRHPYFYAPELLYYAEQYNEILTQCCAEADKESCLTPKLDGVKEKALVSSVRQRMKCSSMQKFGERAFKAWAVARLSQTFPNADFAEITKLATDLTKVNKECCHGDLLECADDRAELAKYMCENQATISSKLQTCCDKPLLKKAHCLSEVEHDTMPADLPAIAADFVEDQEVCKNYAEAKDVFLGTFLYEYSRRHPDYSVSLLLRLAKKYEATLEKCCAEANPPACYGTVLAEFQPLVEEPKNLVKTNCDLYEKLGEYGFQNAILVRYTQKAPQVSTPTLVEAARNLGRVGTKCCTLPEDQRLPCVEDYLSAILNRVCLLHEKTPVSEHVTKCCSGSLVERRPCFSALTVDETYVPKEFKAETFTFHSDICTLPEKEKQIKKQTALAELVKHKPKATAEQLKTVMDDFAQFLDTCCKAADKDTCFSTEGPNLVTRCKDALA

For `Cc1ccc(CCCC(=O)NCCOCCOCCOCCOCCC(=O)NCCCC[C@H](NC(=O)CN2CCN(CC(=O)O)CCN(CC(=O)O)CCN(CC(=O)O)CC2)C(=O)N[C@@H](CC(=O)O)C(=O)N[C@@H](CC2CCCCC2)C(=O)N[C@@H](Cc2ccccc2)C(=O)N[C@H](CO)C(=O)N[C@H](CCCNC(=N)N)C(=O)N[C@@H](Cc2ccc(O)cc2)C(=O)N[C@@H](CC(C)C)C(=O)N[C@@H](Cc2c[nH]c3ccccc23)C(=O)N[C@@H](CO)C(N)=O)cc1` [[^177Lu]Lu-uPAR-11, metal not drawn], the logD in the series “physchem” is -0.26 ± 0.09. At mouse serum albumin, the “Weaker affinity to mouse albumin than [177Lu]Lu-uPAR-02” value worked out at 3.2 fold. In series [1], the “AUC0h→48h, HEK-uPAR xenograft” value is on record as 410 ± 21 % IA/g*h; the “AUC0h→48h, blood” value amounted to 109 ± 6 % IA/g*h; the “AUC0h→48h, kidneys” value is 103 ± 5 % IA/g*h; the “AUC0h→48h, liver” value is 38 ± 2 % IA/g*h. In addition, in series [1], the “Blood AUC0h→48h relative to [177Lu]Lu-DOTA-AE105” value is 3.9 fold, the “HEK-uPAR xenograft AUC0h→48h relative to [177Lu]Lu-DOTA-AE105” value was determined as 16 fold, the “Kidneys AUC0h→48h relative to [177Lu]Lu-DOTA-AE105” value is listed as ~ 1.7 fold and the “Liver AUC0h→48h relative to [177Lu]Lu-DOTA-AE105” value is reported as ~ 5.5 fold. For the same molecule, the “Xenograft-to-blood AUC0h→48h ratio relative to [177Lu]Lu-DOTA-AE105” value in series [1] worked out at 4.2 fold. Also, on human serum albumin, the “Inverse relative albumin-binding affinity” value was 1.00^b and the “Weaker affinity to human albumin than [177Lu]Lu-uPAR-02” value was determined as 4.6 fold. Moreover, the “SPECT/CT: accumulation in HEK-uPAR xenograft” value (from here on “SPECT/CT: accumulation”) in series [2] was “highest at 1 h p.i. and relatively well retained over the following hours”.
On to `Cc1ccc(CCCC(=O)NCCOCCOCCOCCOCCOCCC(=O)NCCCC[C@H](NC(=O)CN2CCN(CC(=O)O)CCN(CC(=O)O)CCN(CC(=O)O)CC2)C(=O)N[C@@H](CC(=O)O)C(=O)N[C@@H](CC2CCCCC2)C(=O)N[C@@H](Cc2ccccc2)C(=O)N[C@H](CO)C(=O)N[C@H](CCCNC(=N)N)C(=O)N[C@@H](Cc2ccc(O)cc2)C(=O)N[C@@H](CC(C)C)C(=O)N[C@@H](Cc2c[nH]c3ccccc23)C(=O)N[C@@H](CO)C(N)=O)cc1` [[^177Lu]Lu-uPAR-18, metal not drawn], for which the logD in “physchem” was -0.5 ± 0.07. Moreover, the “Albumin-binding properties, relative values (inverse B50 ratio)” value on mouse serum albumin is 0.66. For the same molecule, the Xgrft-to-liver ratio in series [1] turned out to be 20 ± 3. For the same molecule, the “Inverse relative albumin-binding affinity” value on human serum albumin amounted to 1.05. Moreover, the “SPECT/CT: accumulation” value in series [2] was “highest at 1 h p.i. and relatively well retained over the following hours”.
The molecule `Cc1ccc(CCCC(=O)NCCCCCCCC(=O)NCCCC[C@H](NC(=O)CN2CCN(CC(=O)O)CCN(CC(=O)O)CCN(CC(=O)O)CC2)C(=O)N[C@@H](CC(=O)O)C(=O)N[C@@H](CC2CCCCC2)C(=O)N[C@@H](Cc2ccccc2)C(=O)N[C@H](CO)C(=O)N[C@H](CCCNC(=N)N)C(=O)N[C@@H](Cc2ccc(O)cc2)C(=O)N[C@@H](CC(C)C)C(=O)N[C@@H](Cc2c[nH]c3ccccc23)C(=O)N[C@@H](CO)C(N)=O)cc1` [[^177Lu]Lu-uPAR-12, metal not drawn] registered a log distribution coefficient (logD) in the series “physchem” of 0.96 ± 0.15. In addition, the Xgrft-to-liver ratio in series [1] is recorded as 1.3 ± 0.1. Further, the “SPECT/CT: blood retention” value in series [2] is on record as “substantial blood retention was observed over the entire time of investigation”.
Regarding `Cc1ccc(CCCC(=O)NCCOCCOCCOCCOCCC(=O)NC[C@H](NC(=O)CN2CCN(CC(=O)O)CCN(CC(=O)O)CCN(CC(=O)O)CC2)C(=O)N[C@@H](CC(=O)O)C(=O)N[C@@H](CC2CCCCC2)C(=O)N[C@@H](Cc2ccccc2)C(=O)N[C@H](CO)C(=O)N[C@H](CCCNC(=N)N)C(=O)N[C@@H](Cc2ccc(O)cc2)C(=O)N[C@@H](CC(C)C)C(=O)N[C@@H](Cc2c[nH]c3ccccc23)C(=O)N[C@@H](CO)C(N)=O)cc1` [[^177Lu]Lu-uPAR-14, metal not drawn], the logD in “physchem” is -0.13 ± 0.08. On mouse serum albumin, the “Albumin-binding affinity relative to [177Lu]Lu-uPAR-11” value is 0.50‒0.77 and the “Albumin-binding properties, relative values (inverse B50 ratio)” value is listed as 0.66. In addition, the Xgrft-to-liver ratio in series [1] turned out to be 7.4 ± 1.0. Also, the “Inverse relative albumin-binding affinity” value at human serum albumin stood at 0.50. Further, the “SPECT/CT: accumulation” value in series [2] is “almost entirely cleared at 24 h p.i”.
For the molecule `Cc1ccc(CCCC(=O)NCCOCCOCCOCCC(=O)NCCCC[C@H](NC(=O)CN2CCN(CC(=O)O)CCN(CC(=O)O)CCN(CC(=O)O)CC2)C(=O)N[C@@H](CC(=O)O)C(=O)N[C@@H](CC2CCCCC2)C(=O)N[C@@H](Cc2ccccc2)C(=O)N[C@H](CO)C(=O)N[C@H](CCCNC(=N)N)C(=O)N[C@@H](Cc2ccc(O)cc2)C(=O)N[C@@H](CC(C)C)C(=O)N[C@@H](Cc2c[nH]c3ccccc23)C(=O)N[C@@H](CO)C(N)=O)cc1` [[^177Lu]Lu-uPAR-15, metal not drawn], the logD in “physchem” is -0.03 ± 0.01. Also, on mouse serum albumin, the “Albumin-binding affinity relative to [177Lu]Lu-uPAR-11” value is on record as 0.50‒0.77 and the “Albumin-binding properties, relative values (inverse B50 ratio)” value came out at 0.77. Also, the Xgrft-to-liver ratio in series [1] came to 6.5 ± 1.7. The “Inverse relative albumin-binding affinity” value at human serum albumin was 0.77. Besides, the “SPECT/CT: accumulation” value in series [2] was “highest at 1 h p.i. and relatively well retained over the following hours”.
As for `Cc1ccc(CCCC(=O)NCCOCCOCCOCCOCCC(=O)NCCCC[C@H](NC(=O)CC[C@H](C(=O)O)N2CCN(CC(=O)O)CCN(CC(=O)O)CCN(CC(=O)O)CC2)C(=O)N[C@@H](CC(=O)O)C(=O)N[C@@H](CC2CCCCC2)C(=O)N[C@@H](Cc2ccccc2)C(=O)N[C@H](CO)C(=O)N[C@H](CCCNC(=N)N)C(=O)N[C@@H](Cc2ccc(O)cc2)C(=O)N[C@@H](CC(C)C)C(=O)N[C@@H](Cc2c[nH]c3ccccc23)C(=O)N[C@@H](CO)C(N)=O)cc1` [[^177Lu]Lu-uPAR-17, metal not drawn], the logD in “physchem” was -1.56 ± 0.03. Also, at mouse serum albumin, the “Albumin-binding affinity relative to [177Lu]Lu-uPAR-11” value is 0.50‒0.77 and the “Albumin-binding properties, relative values (inverse B50 ratio)” value amounted to 0.77. The molecule also gave a Kidneys uptake in series [1] (CD1 nude, 0.5 nmol/mouse, 24 h) of 1.3 ± 0.2 %IA/g. Besides, the Xgrft-to-liver ratio in series [1] worked out at 10 ± 3. Also, on human serum albumin, the “Inverse relative albumin-binding affinity” value is on record as 0.65. In series [2], the “SPECT/CT: accumulation” value was “almost entirely cleared at 24 h p.i”.
